test: method code AS, from DOI: 10.1248/cpb.32.4994, PMID: 6534548

SMILES	logP
O=C(Cc1ccccc1)Nc1ccc(Br)cc1	3.7

test: method code SF-AQ, from DOI: 10.1248/cpb.32.4994, PMID: 6534548

SMILES	logP
CCc1cccc(N(C(C)=O)c2ccccc2)c1	3.47

test: method code SF-AS, from DOI: 10.1248/cpb.32.4994, PMID: 6534548

SMILES	logP
CS(=O)(=O)Oc1cccc(NC(=O)Cc2ccccc2)c1	2.32
COc1ccc(NC(=O)Cc2ccccc2)cc1	2.49
CC(=O)c1cccc(NC(=O)Cc2ccccc2)c1	2.62
O=C(Cc1ccccc1)Nc1cccc([N+](=O)[O-])c1	2.93
CC(=O)N(c1ccccc1)c1ccc(C)cc1	3.05
O=C(Cc1ccccc1)Nc1cccc(F)c1	3.1
O=C(Cc1ccccc1)Nc1cccc(Cl)c1	3.61
CC(=O)Oc1cccc(NC(=O)Cc2ccccc2)c1	2.37
Cc1cccc(NC(=O)Cc2ccccc2)c1	3.14
O=C(Cc1ccccc1)Nc1ccc(Cl)cc1	3.54
CCNc1cccc(NC(=O)Cc2ccccc2)c1	2.59
N#Cc1cccc(NC(=O)Cc2ccccc2)c1	2.75
O=C(Cc1ccccc1)Nc1ccc(F)cc1	2.86
O=C(Cc1ccccc1)Nc1cccc(Br)c1	3.77
CNc1cccc(NC(=O)Cc2ccccc2)c1	2.31
O=C(Cc1ccccc1)Nc1cccc(I)c1	3.91
CC(=O)c1ccc(NC(=O)Cc2ccccc2)cc1	2.75
O=C(Cc1ccccc1)Nc1cccc(O)c1	2.22
O=C(Cc1ccccc1)Nc1ccc(O)cc1	1.82
COc1cccc(NC(=O)Cc2ccccc2)c1	2.86
Nc1cccc(NC(=O)Cc2ccccc2)c1	1.59
